The source of these data is patent US5916915A, “Water-in-stable L-ascorbic acid derivative and a method for preparation thereof, and a skin-whitening cosmetic composition containing the same” (priority 1997, dated 1999).

Data set [1] in a line: Stability of AsA-APPA in pH 7 buffer at 50° C. (residual ratio by UV absorbance). It is filed as physicochemical. As to the method:
L-Ascorbic acid and AsA-APPA produced in Preparation Ex. 2 were dissolved in buffer solutions of pH 7 to concentrations of 50 μM, respectively, and then maintained in a thermostat of 50° C. At constant intervals, UV absorbances were measured at 259 nm for AsA-APPA and at 266 nm for L-ascorbic acid, to evaluate the stabilities of the test samples as residual ratio(%).

A further data set concerns skin of Guinea pigs. In words: Skin Sensitization Test (Guinea Pig Maximization test). It is filed as in vivo, Guinea pigs (Hartley Albino Guinea Pig). As to the method:
Test was carried out for six(6)(three males and three females) of Guinea pigs(Hartley Albino Guinea Pig) weighing 300~360 g according to Maggnusson and Kligman's procedure (Guinea Pig Maximization test).
In order to determine the concentrations of the test samples to be applied in Induction test for light irritation and Challenge test for no irritation, for three(3) of Guinea pigs for each test, primary irritations were taken with 6.25%, 12.5% and 25.0% of the test samples, respectively. For each animal, each site (2.5×2.5 cm) of right and left of the back was treated with three concentrations of the test samples in an amount of 0.5 ml/site of AsA-APPA, and then covered with a gauze, which was fixed using an non-irritative tape, for 24 hours. Next, 0.1 ml of 25% of AsA-APPA was intradermally injected to each of two pigs(one male and one female) using 26-gauge 1/2-inched needle. 7 Days later, the same sites were depilated and pretreated with 10% of SLS in petrolatum. Then, each tested site was treated with 0.5 ml/site of AsA-APPA, and then covered with a gauze, which was fixed using an non-irritative tape, for 48 hours. 2 Weeks later, the left back of the depilated pig was treated with the test sample and the right back was treated with physiological saline. 24 Hours later, the tested sites were washed with physiological saline.
As a control, test was carried out using physiological saline, instead of the test sample, in the same procedure.

By amount remaining is commonly meant the share of the starting amount still present when the sample was taken. As to `NCCCOP(=O)(O)OC1=C(O)[C@@H]([C@@H](O)CO)OC1=O` [AsA-APPA, 2-(3-aminopropanephosphoric acid)-L-ascorbate], the “stability in neutral aqueous solution” value in data set [1] (pH 7, 50° C.) was “very stable”. In data set [1] (ph 7 buffer, 30 min., pH 7, 50 μM, 50° C.), the fraction remaining at 0.5 h, 50 µM came to 100%. In data set [1] (ph 7 buffer, 1 hr., pH 7, 50 μM, 50° C.), the fraction remaining at 1 h, 50 µM turned out to be 100%. For the same compound, the fraction remaining at 3 h, 50 µM in data set [1] (ph 7 buffer, 3 hr., pH 7, 50 μM, 50° C.) amounted to 100%. In data set [1] (ph 7 buffer, 6 hr., pH 7, 50 μM, 50° C.), the amount remaining at 6 h, 50 µM came out at 100%. Besides, the amount remaining at 24 h, 50 µM in data set [1] (ph 7 buffer, 24 hr., pH 7, 50 μM, 50° C.) was determined as 99.1%. Moreover, the amount remaining at 144 h, 50 µM in data set [1] (ph 7 buffer, 6 days, pH 7, 50 μM, 50° C.) was determined as 95.5%. The fraction remaining at 240 h, 50 µM in data set [1] (ph 7 buffer, 10 days, pH 7, 50 μM, 50° C.) turned out to be 93.5%. Further, the “Evaluation of skin sensitization” value in the data set on skin of Guinea pigs (Guinea pig) was “very safe to the skin”. Moreover, the “skin abnormality such as erythema and edema” value with skin of Guinea pigs (Guinea pig, 24, 48 and 72 hours after removing the patches) was “no skin abnormality such as erythema and edema was observed”. Besides, the “Kligman's grade” value in the data set on skin of Guinea pigs (Guinea pig, Kligman's criterion) is listed as 1.
